Among the data in BindingDB's records for patent US10370339 (Bayer Pharma Aktiengesellschaft, 2019) are IC50 values, retold here.

As usually defined, the IC50 is the concentration that gives 50% inhibition.

The target in this test is Isocitrate dehydrogenase [NADP] cytoplasmic [R132H] (Homo sapiens, UniProt O75874, R132H). Briefly: Biological Assay. The method, then: Mutant IDH1 R132H Biochemical Assay mIDH1 catalyzes the NADPH-dependent reduction of alpha-ketoglutarate (a-KG) to (2R)-2-hydroxyglutarate (2-HG). NADPH consumption was measured by luminescent readout.The biochemical reactions were performed at 32° C. in 384-well plates using a reaction volume of 41 μL and the following assay buffer conditions: 50 mM Tris pH 7.5, 100 mM NaCl, 20 mM MgCl2, 0.05% BSA, 0.01% Brij, 1 μM NADPH, and 250 μM α-KG. The IDH1 R132H enzyme was used in a final concentration of 1.5 nM. Test compounds were used in a concentration range between 0.002 and 10 μM. The final DMSO concentration was 2.4%.The reaction was incubated for 30 minutes, then 40 μL of detection mix (0.75 μg/ml Luciferase, 0.02 U/ml Oxidoreductase, 4 μg/mL FMN, 2 μL/ml decanal/ethanol, 50 mM Tris pH 7.5, 0.5% Glycerin, 0.01% Tween-20, 0.05% BSA) was added. Luminescence was measured on a luminescent reader (10 seconds measuring time, 1 second integration period, 30% sensitivity). The decrease in luminescence is proportional to mIDH1 activity. IC50 values are determined by interpolation from plots of relative luminescence versus inhibitor concentration.
Isocitrate dehydrogenase [NADP] cytoplasmic [R132H], sequence (O75874 2-414 R132H limits assumed): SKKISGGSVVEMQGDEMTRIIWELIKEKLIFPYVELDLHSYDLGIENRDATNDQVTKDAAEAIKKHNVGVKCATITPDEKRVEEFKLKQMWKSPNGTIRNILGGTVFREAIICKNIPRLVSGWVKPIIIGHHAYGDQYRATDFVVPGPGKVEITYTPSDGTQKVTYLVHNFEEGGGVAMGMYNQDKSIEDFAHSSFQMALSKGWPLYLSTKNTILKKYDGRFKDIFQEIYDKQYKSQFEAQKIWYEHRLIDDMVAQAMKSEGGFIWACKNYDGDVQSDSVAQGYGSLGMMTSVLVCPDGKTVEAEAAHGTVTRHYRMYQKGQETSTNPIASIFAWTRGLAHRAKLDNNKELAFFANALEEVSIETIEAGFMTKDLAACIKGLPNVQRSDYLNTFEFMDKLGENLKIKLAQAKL
For the compound `COc1cc2c(cc1C(=O)O)nc(Nc1ccc(OC(C)C)cc1)n2[C@@H]1C[C@H](C)CC[C@H]1C(C)C` [US10370339, Example 2-30], it took 15 nM to reach half-maximal inhibition (IC50).

The compound `CC(C)[C@@H]1CC[C@@H](C)C[C@H]1n1c(Nc2ccc(OC(F)(F)F)cc2)nc2cc(CC(=O)O)ccc21` [US10370339, Example 2-31] had an IC50 of 14 nM. On to `COc1cc2c(cc1CCC(=O)O)nc(Nc1ccc(C(C)C)cc1)n2[C@@H]1C[C@H](C)CC[C@H]1C(C)C` [US10370339, Example 2-48], for which the IC50 was determined as 11 nM.
